# Test results taken from patent US20260337231A1, “METHOD FOR PRODUCING CYCLIC PEPTIDE COMPOUND” (CHUGAI SEIYAKU KABUSHIKI KAISHA, priority 2023, published 2026).
# Columns and labels:
# Format in all cases: physicochemical
# [1] = Powder X-ray diffraction measurement at each relative humidity (influence of humidity on the crystal form); conditions: 35.0 °C
# Protocol: (§1) The powder X-ray diffraction measurement for Example 3-12 was performed under the following conditions to evaluate the crystal form at each relative humidity. The measurement was carried out at the time points between dropping the relative humidity to 0% and raising it to 90%: 0% (FIG. 21(A)), 10% (FIG. 21(B)), 20% (FIG. 21(C)), 50% (FIG. 21(D)), and 90% (FIG. 21(E)). • Measurement apparatus: SmartLab System, D/Tex Ultra detector, humidity generator HUM-SL (manufactured by Rigaku Corporation) • Radiation source: CuKα1 • Tube voltage: 45 kV • Tube current: 200 mA • Scanning range: 4 to 35° • Scanning speed: 5°/min • Sampling width: 0.02° • Humidity change conditions:
# as §1, with “3-13” for “3-12”, “24(A)), 30%” for “21(A)), 10%”, “24(B)),” for “21(B)), 20% (FIG. 21(C)),”, “24(C)),” for “21(D)),”, “24(D)).” for “21(E)).”, “conditions: […]” for “conditions:”
# [2] = Slurry conversion experiment (form A, form B and form K crystals mixed and shaken in mixed solvent); conditions: 25° C., 2000 rpm
# Protocol: The powder X-ray diffraction measurement for Example 3-2, Example 3-3, Example 3-4, Example 3-5, Example 3-6, Example 3-7, Example 3-9, Example 3-16, Example 3-17, Example 3-22, Example 5-1, Example 5-2, Example 5-3, Example 5-4, Example 5-5, Example 5-6, Example 5-7, Example 5-8, and Example 5-9 was performed under the following conditions. • Measurement apparatus: D8 Discover, 2D VANTEC-500 solid state detector (manufactured by Bruker) • Radiation source: CuKα • Tube voltage and tube current: 50 kV and 1000 μA • Measurement range: 5 to 31° • Exposure time: 40 seconds
# (§2) The form A crystal (3.0 mg), form B crystal (3.0 mg), and form K crystal (3.0 mg) of compound 1 were mixed, and a mixed solvent of acetone-heptane (1:1 (v/v), 0.030 mL) and one grain of glass bead were added. Using a shaker (BioShaker M⋅BR-022UP manufactured by TAITEC CORPORATION), the mixture was shaken at 25° C., 2000 rpm for 9 days, and then filtered and dried under reduced pressure to obtain a crystal (form B) of compound 1. […] It was confirmed that the form B crystal is a stable form in the mixed solvent of acetone-heptane (1:1 (v/v)).
# as §2, with “(3.1” for “(3.0”, “2-propanol-heptane” for “acetone-heptane”
# as §2, with “K crystal (3.1 mg) of” for “K crystal (3.0 mg) of”, “solvent of ethanol-heptane (1:1 (v/v),” for “solvent of acetone-heptane (1:1 (v/v),”, “solvent of ethanol-heptane (1:1 (v/v)).” for “solvent of acetone-heptane (1:1 (v/v)).”
# as §2, with “acetone-water” for “acetone-heptane”
# as §2, with “B crystal (3.1 mg), and” for “B crystal (3.0 mg), and”, “K crystal (3.1 mg) of” for “K crystal (3.0 mg) of”, “solvent of 2-propanol-water (1:1 (v/v),” for “solvent of acetone-heptane (1:1 (v/v),”, “solvent of 2-propanol-water (1:1 (v/v)).” for “solvent of acetone-heptane (1:1 (v/v)).”
# The form A crystal (3.1 mg), form B crystal (3.0 mg), and form K crystal (3.1 mg) of compound 1 were mixed, and a mixed solvent of ethanol-water (1:1 (v/v), 0.030 mL) and one grain of glass bead were added. Using a shaker (BioShaker M⋅BR-022UP manufactured by TAITEC CORPORATION), the mixture was shaken at 25° C., 2000 rpm for 9 days, and then filtered and dried under reduced pressure to obtain a crystal (form B) of compound 1. […] It was confirmed that the form B crystal is a stable form in the mixed solvent of ethanol-water (1:1 (v/v)). […]
# [3] = Thermogravimetry-differential thermal analysis (TG-DTA); conditions: 10° C./min, nitrogen
# Protocol: The thermogravimetry-differential thermal analysis (TG-DTA) for Example 3-8, Example 3-9, Example 3-12, Example 3-13, Example 3-17, and Example 3-19 was performed under the following conditions. • Measurement apparatus: STA7200RV+AS-3T (manufactured by Hitachi High-Tech Science Corporation) • Measurement range: 30 to 350° C. • Heating rate: 10° C./min • Atmosphere: nitrogen • Measurement: The sample was weighed in an open aluminum pan and covered with a mesh to perform the measurement.
crystal form at a relative humidity of 0% [1],"stable form in slurry conversion ([2]; 2-propanol-heptane (1:1 (v/v)), 9 days)","stable form in slurry conversion ([2]; 2-propanol-water (1:1 (v/v)), 9 days)","stable form in slurry conversion ([2]; 2-propanol-water (1:4 (v/v)), 9 days)","stable form in slurry conversion ([2]; acetone-heptane (1:1 (v/v)), 9 days)","stable form in slurry conversion ([2]; acetone-water (1:1 (v/v)), 9 days)","stable form in slurry conversion ([2]; acetone-water (1:4 (v/v)), 9 days)","stable form in slurry conversion ([2]; ethanol-heptane (1:1 (v/v)), 9 days)","stable form in slurry conversion ([2]; ethanol-water (1:1 (v/v)), 9 days)","stable form in slurry conversion ([2]; ethanol-water (1:4 (v/v)), 7 days)",weight reduction ([3]; crystal of Example 3-8 (from acetone/heptane)) [wt %],weight reduction ([3]; crystal of Example 3-9 (from 2-propanol/heptane)) [wt %],SMILES
transformed into the form Y,a stable form,a stable form,a stable form,a stable form,a stable form,a stable form,a stable form,a stable form,a stable form,,,CCC[C@H]1C(=O)N[C@@H]([C@@H](C)CC)C(=O)N2CCC[C@H]2C(=O)N(C)[C@H]2C/C=C\CCN(C2=O)[C@@H](Cc2ccc(C(F)(F)F)cc2)C(=O)N(C)CC(=O)N[C@@H](CCc2ccc(C(F)(F)F)c(OC)c2)C(=O)N2C[C@H](OCC)C[C@H]2C(=O)N(C)C2(CCC2)C(=O)N(C)[C@@H](C2CCCC2)C(=O)N(C)[C@H](C(=O)N(C)C)CC(=O)N1C [form B]
transformed into the form J,,,,,,,,,,3,2,CCC[C@H]1C(=O)N[C@@H]([C@@H](C)CC)C(=O)N2CCC[C@H]2C(=O)N(C)[C@H]2C/C=C\CCN(C2=O)[C@@H](Cc2ccc(C(F)(F)F)cc2)C(=O)N(C)CC(=O)N[C@@H](CCc2ccc(C(F)(F)F)c(OC)c2)C(=O)N2C[C@H](OCC)C[C@H]2C(=O)N(C)C2(CCC2)C(=O)N(C)[C@@H](C2CCCC2)C(=O)N(C)[C@H](C(=O)N(C)C)CC(=O)N1C [form A]
